Data from patent US20260256763A1, “Aromatic Amide Derivative, And Preparation Method Therefor And Use Thereof” (Zhejiang Hisun Pharmaceutical Co., Ltd., priority 2023, published 2026).

Columns and labels:
OVCAR-3 cells = experiment: Inhibition on OVCAR-3 cell proliferation (CellTiter-Glo); type: cell-based; conditions: Homo sapiens, OVCAR-3 cells (TP53 R248Q mutation), 72 hours
Method: (§1) Influences of the compounds of the present invention on OVCAR-3 cell proliferation were determined by the following method. OVCAR-3 cells (containing TP53 R248Q mutation) were purchased from the Cell Bank of Shanghai Institute of Biochemistry and Cell Biology, Chinese Academy of Sciences, and cultured in an RPMI 1640 culture medium containing 1000 fetal bovine serum, 100 U penicillin and 100 μg/mL streptomycin. A cell viability was determined by a CellTiter-Glo® Luminescent Cell Viability Assay kit (Promega, article number G7573).
(§2) An experimental method was operated according to steps in the instruction of the kit, which was briefly described as follows: a test compound was dissolved in DMSO first to prepare a 10 mM stock solution, then the stock solution was diluted with the above RPMI 1640 culture medium to prepare a test sample, and a final concentration of the compound was in a range of 1000 nM-0.015 nM. Cells in a logarithmic growth phase were inoculated into a 96-well cell culture plate at a density of 1000 cells per well, cultured in a 5% CO2 incubator at 37° C. overnight, and then the test compound was added to continuously culture for 72 hours. After the culture was ended, 50 μL of CellTiter-Glo detection solution was added to each well, the plates were shaken for 5 minutes, and then allowed to stand for 10 minutes, and subsequently, a luminous value of each well of sample was read by a microplate reader in a Luminescence mode. By comparing with a numerical value of a control group (0.3% DMSO), a percentage inhibition rate of the compound at each concentration was calculated, and then nonlinear regression analysis was carried out based on concentration logarithm-inhibition rate of the compound in GraphPad Prism 5 software, so as to obtain an IC50 value of the compound in inhibition on cell proliferation, which are shown in Table 1.

HT-29 cells = experiment: Inhibition on HT-29 cell proliferation (CellTiter-Glo); type: cell-based; conditions: Homo sapiens, HT-29 cells (TP53 R273H mutation), 120 hours
Method: as §1, with “HT-29” for “OVCAR-3”, “R273H” for “R248Q”, “a McCOY's 5A” for “an RPMI 1640”, “10%” for “1000”
as §2, with “McCOY's 5A” for “RPMI 1640”, “120” for “72”, “µL” for “μL”, “2.” for “1.”

recombinant human KIF18A = target: T1, recombinant human KIF18A (Homo sapiens, UniProt Q8NI77); experiment: Inhibition on KIF18A enzyme activity (ADP-Glo); type: biochemical; conditions: recombinant human KIF18A 100 nM, ATP 60 μM
T1 construct: purchased GenScript
Method: Inhibition degrees of the compounds of the present invention on recombinant human KIF18A enzyme activity in vitro were determined by the following method. An ADP-Glo™ Kinase Assay kit (article number V9102) from Promega Company was used in this method. Detailed experimental operation can be referred to the instruction of the kit.
The reaction was carried out in a 384-well microplate. The test compound and the recombinant human KIF18A protein (final concentration of 100 nM, entrusted to GenScript for expression) were added into the wells and incubated at room temperature for 20 minutes, and subsequently, ATP solution (component V915A from the ADP-Glo™ Kinase Assay kit, final concentration of 60 μM) was added to the reaction solution and the obtained system was incubated at room temperature for 20 minutes. Subsequently, 5 μL of ADP-Glo Reagent was added to the reaction system and the obtained system was incubated at room temperature for 50 minutes. Then, 10 μL of Kinase Detection Reagent was added to the reaction system, and the obtained system was incubated at room temperature for 30 minutes. After the incubation was ended, a chemiluminiscence intensity value of each well was determined by a microplate reader in a Luminescence mode.

T1 sequence (Q8NI77 whole entry): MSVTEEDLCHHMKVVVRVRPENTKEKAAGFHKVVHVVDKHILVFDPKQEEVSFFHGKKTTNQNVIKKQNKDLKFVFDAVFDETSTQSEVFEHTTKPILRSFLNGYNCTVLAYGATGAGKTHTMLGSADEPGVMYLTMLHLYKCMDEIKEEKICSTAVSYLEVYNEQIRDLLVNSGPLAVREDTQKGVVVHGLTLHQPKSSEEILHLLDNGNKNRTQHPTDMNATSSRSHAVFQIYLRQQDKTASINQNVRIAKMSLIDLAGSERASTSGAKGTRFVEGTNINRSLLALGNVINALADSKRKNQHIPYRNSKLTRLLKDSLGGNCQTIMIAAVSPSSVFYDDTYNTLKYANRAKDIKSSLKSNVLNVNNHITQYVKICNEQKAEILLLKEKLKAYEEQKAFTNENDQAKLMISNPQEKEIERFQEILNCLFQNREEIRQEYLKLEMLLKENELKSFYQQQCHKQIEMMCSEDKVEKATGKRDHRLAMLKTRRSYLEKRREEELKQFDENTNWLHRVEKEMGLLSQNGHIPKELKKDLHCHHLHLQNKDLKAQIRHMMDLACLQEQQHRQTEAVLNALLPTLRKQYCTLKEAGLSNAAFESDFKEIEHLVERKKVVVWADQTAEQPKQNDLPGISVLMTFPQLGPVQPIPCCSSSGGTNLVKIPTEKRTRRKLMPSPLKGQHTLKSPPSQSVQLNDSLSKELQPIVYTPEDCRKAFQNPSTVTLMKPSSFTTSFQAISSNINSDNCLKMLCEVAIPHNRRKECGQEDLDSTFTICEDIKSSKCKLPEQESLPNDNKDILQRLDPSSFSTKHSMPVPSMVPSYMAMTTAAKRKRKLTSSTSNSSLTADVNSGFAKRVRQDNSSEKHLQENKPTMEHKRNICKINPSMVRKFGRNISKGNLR
T1 sequence (P68363 whole entry partner): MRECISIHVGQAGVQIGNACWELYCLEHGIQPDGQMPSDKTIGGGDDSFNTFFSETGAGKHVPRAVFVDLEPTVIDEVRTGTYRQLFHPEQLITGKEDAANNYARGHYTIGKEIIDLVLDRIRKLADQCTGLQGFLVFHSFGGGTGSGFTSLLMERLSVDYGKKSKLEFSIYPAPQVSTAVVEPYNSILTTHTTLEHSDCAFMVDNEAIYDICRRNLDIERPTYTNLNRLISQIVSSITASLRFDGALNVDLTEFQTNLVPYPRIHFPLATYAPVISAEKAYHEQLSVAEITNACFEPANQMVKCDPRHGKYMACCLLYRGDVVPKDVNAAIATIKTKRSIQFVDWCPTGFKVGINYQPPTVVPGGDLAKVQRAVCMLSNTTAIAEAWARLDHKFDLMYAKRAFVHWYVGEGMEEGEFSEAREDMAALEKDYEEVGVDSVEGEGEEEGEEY
T1 sequence (Q9BVA1 whole entry partner): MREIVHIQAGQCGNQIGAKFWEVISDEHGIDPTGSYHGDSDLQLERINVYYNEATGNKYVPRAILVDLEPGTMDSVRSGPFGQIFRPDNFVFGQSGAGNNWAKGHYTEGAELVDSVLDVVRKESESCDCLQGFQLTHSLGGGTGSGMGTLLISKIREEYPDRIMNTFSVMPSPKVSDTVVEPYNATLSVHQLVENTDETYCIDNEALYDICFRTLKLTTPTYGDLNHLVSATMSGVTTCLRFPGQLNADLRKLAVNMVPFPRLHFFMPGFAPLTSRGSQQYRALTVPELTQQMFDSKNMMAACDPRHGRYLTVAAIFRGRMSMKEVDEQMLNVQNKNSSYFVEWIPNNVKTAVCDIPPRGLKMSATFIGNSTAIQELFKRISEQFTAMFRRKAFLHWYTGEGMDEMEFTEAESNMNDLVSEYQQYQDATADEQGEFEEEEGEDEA

SMILES | IC50 (OVCAR-3 cells) [nM] | IC50 (HT-29 cells) [nM] | IC50 (recombinant human KIF18A) [nM]
CN1Cc2cc(NC(=O)c3ccc(NS(=O)(=O)CCO)cc3N3CCC4(CC3)CC4)cc(N3CCC(F)(F)CC3)c2C1=O [Example 28, N-(7-(4,4-difluoropiperidin-1-yl)-2-methyl-1-oxoisoindolin-5-yl)-4-((2-hydroxyethyl)sulfamine)-2-(6-azaspiro[2.5]octan-6-yl)benzamide] | 6.8 | 18.9 | 142
CCS(=O)(=O)Nc1ccc(C(=O)Nc2cc3c(c(N4CCC(F)(F)CC4)c2)OCCO3)c(N2CCC3(CC2)CC3)c1 [Example 14, N-(8-(4,4-difluoropiperidin-1-yl)-2,3-dihydrobenzo[b][1,4]dioxin-6-yl)-4-(ethylsulfonamido)-2-(6-azaspiro[2.5]octan-6-yl)benzamide] | 8.4 | 9.2 | 184
CCS(=O)(=O)Nc1ccc(C(=O)Nc2cc3c(c(N4CCCCC4)c2)OCC3)c(N2CCC3(CC2)CC3)c1 [Example 3, 4-(ethylsulfonamido)-N-(7-(piperidin-1-yl)-2,3-dihydrobenzofuran-5-yl)-2-(6-azaspiro[2.5]octan-6-yl)benzamide] | 11.2 | 6.6 | 72.5
CCS(=O)(=O)Nc1ccc(C(=O)Nc2cc(N3CC(F)(F)C3)c3nn(C)cc3c2)c(N2CCC3(CC2)CC3)c1 [Example 24, N-(7-(3,3-difluoroazetidin-1-yl)-2-methyl-2H-indazol-5-yl)-4-(ethylsulfonamido)-2-(6-azaspiro[2.5]octan-6-yl)benzamide] | 13.4 | 4.1 | 85.7
